From US5714363A, “Deacetoxycephalosporin C hydroxylase” (priority 1992, dated 1998)
Structures can show the parent of a compound that is named as a salt. Where two headings read alike, the source gives them in different places.

How the values were obtained:
DAOC hydroxylase [1] = molecular target: T1, DAOC hydroxylase (Streptomyces clavuligerus, UniProt P42220); assay: Stoichiometry of DAOC to DAC conversion; assay type: biochemical; design: The highly purified native enzyme (92% purity) has a molecular weight of 35,000 dalton; endogenous in cells; host or cells: Streptomyces clavuligerus cells (native producer; NRRL 18491 is named as preferred strain), enzyme purified from cell-free extract
T1 sequence (P42220 1-318): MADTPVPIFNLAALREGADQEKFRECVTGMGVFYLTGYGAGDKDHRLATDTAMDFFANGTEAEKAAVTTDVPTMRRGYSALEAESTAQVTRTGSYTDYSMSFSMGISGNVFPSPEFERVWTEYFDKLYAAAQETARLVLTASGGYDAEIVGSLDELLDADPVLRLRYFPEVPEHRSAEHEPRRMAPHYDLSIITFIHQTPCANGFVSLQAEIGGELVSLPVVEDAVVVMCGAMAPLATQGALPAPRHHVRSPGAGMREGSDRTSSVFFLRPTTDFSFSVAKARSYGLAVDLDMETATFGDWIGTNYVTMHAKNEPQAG
Experimental: The stoichiometry of the hydroxylase conversion of DAOC to DAC was determined. The molar ratio for DAC-formation/DAOC-disappearance during a 3 h reaction remained in the range of 0.91-1.00 as shown by the plot in FIG. 2. The conversion of DAOC to DAC was only partially complete (58%) under the reaction conditions.

DAOC hydroxylase [2] = molecular target: T1, DAOC hydroxylase; assay: Substrate specificity of purified DAOC hydroxylase; assay type: biochemical; design: The highly purified native enzyme (92% purity) has a molecular weight of 35,000 dalton; endogenous in cells; host or cells: Streptomyces clavuligerus cells (native producer; NRRL 18491 is named as preferred strain), enzyme purified from cell-free extract; settings: for Sp. Activity (mU/mg) / Relative Activity (%): compound as substrate; for Relative Activity (%): relative to DAOC = 100; for Vmax (Percent Catalytic Activities, relative Vmax): relative to DAOC to DAC = 100, substrate of the reaction; for effectiveness as substrate: conditions for optimal catalysis
Experimental: Several compounds were evaluated as substrates for the purified enzyme to determine its substrate specificity. The compounds evaluated and the results are shown below in TABLE 4. The results were obtained by EPLC analysis.
(§1) The activity of the DAOC hydroxylase is determined throughout the process by the following assay method. The hydroxylase activity was determined by monitoring DAC formation from DAOC at 260 nm with HPLC as described by Dotzlaf, J. E., and Yeh, W.-K. (1987) J. Bacteriol., 169, 1611-1618. […] The enzymatic reaction is initiated by adding the DAOC and the reaction is conducted for 20 minutes at 29° C. DAC formation is linear with reaction time for up to 40 minutes. One unit of enzyme activity is defined as the amount of hydroxylase required to cause formation of one μmol of DAC per minute from DAOC under the above-described assay conditions.

DAOC hydroxylase [3] = molecular target: T1, DAOC hydroxylase; assay: DAOC hydroxylase activity assay (DAC formation from DAOC, HPLC at 260 nm); assay type: biochemical; design: The highly purified native enzyme (92% purity) has a molecular weight of 35,000 dalton; endogenous in cells; host or cells: Streptomyces clavuligerus cells (native producer; NRRL 18491 is named as preferred strain), enzyme purified from cell-free extract; settings: for drop of maximum catalytic activity when not present: external ferrous ion, DTT and ascorbate both absent; for stimulation of catalytic activity: with Fe2+, α-ketoglutarate and O2; for reduction in enzyme activity: substitution of MOPS buffer at optimal pH; for replacement of ferrous ion for enzymatic activity: ion in place of Fe2+; for Relative Activity (%): no additive = 100
Experimental: as §1
The specific activity of the hydroxylase is defined as units per milligram of protein.

[4] = Experimental: The DAOC hydroxylase is recognized as unstable and, accordingly, was difficult to isolate and obtain in a high state of purity from cell-free extracts.
The process of this invention comprises the use of a hydroxylase stabilizing buffer which is used both in the preparation of crude cell-free extracts of the enzyme and during the isolation and purification thereof. The stabilizing buffer, referred to herein as buffer A, comprises 15 mM MOPS buffer, pH 7.3, containing 1 mM uric acid, 1 mM mannitol and 0.1M KCl.

DAOC hydroxylase [5] = molecular target: T1, DAOC hydroxylase; assay: Kinetic parameters of DAOC hydroxylase (Lineweaver-Burk)
Experimental: as §1, with “DAC formation is linear with reaction time for up to 40 minutes.” left out

[6] = substrate: O=C(O)CCC(=O)C(=O)O; assay: purified protein, by the assay type; settings: other: saturated concentration of the other substrate (300 μM DAOC or α-KG); pH 7.3; 29.0 °C
[7] = substrate: CC1=C(C(=O)O)N2C(=O)[C@@H](NC(=O)CCC[C@@H](N)C(=O)O)[C@H]2SC1; assay: purified protein, by the assay type; settings: other: saturated concentration of the other substrate (300 μM DAOC or α-KG); pH 7.3; 29.0 °C

CC1=C(C(=O)O)N2C(=O)[C@@H](NC(=O)CCC[C@@H](N)C(=O)O)[C@H]2SC1 [DAOC, deacetoxycephalosporin C]
conversion of DAOC to DAC (DAOC hydroxylase [1]; 3 h reaction): 58%
molar ratio DAC-formation/DAOC-disappearance (DAOC hydroxylase [1]; during a 3 h reaction): 0.91-1.00
Sp. Activity (mU/mg) (DAOC hydroxylase [2]): 159.2 mU/mg
Relative Activity (%) (DAOC hydroxylase [2]): 100%
Vmax (Percent Catalytic Activities, relative Vmax) (DAOC hydroxylase [2]): 100%

CC1(C)S[C@@H]2[C@H](NC(=O)CCC[C@@H](N)C(=O)O)C(=O)N2[C@H]1C(=O)O [Penicillin N, penicillin N]
effectiveness as substrate (DAOC hydroxylase [2]): weak catalytic activity
Vmax (Percent Catalytic Activities, relative Vmax) (DAOC hydroxylase [2]): 1.4%

O[C@H](CS)[C@H](O)CS (racemic) [DTT, dithiothreitol]
drop of maximum catalytic activity when not present (DAOC hydroxylase [3]): ~80%
stimulation of catalytic activity (DAOC hydroxylase [3]): stimulated

C=C1CS[C@@H]2[C@H](NC(=O)CCC[C@@H](N)C(=O)O)C(=O)N2C1C(=O)O (stereo partly drawn) [EMCC, 7β-(D-α-aminoadipamido)-3-exomethylenecepham-4-carboxylic acid]
Sp. Activity (mU/mg) (DAOC hydroxylase [2]): 58.1 mU/mg
Relative Activity (%) (DAOC hydroxylase [2]): 36.5%
effectiveness as substrate (DAOC hydroxylase [2]): fairly efficient
Vmax (Percent Catalytic Activities, relative Vmax) (DAOC hydroxylase [2]): 37%

NC(CO)(CO)CO [Tris-HCl buffer]
reduction in enzyme activity (DAOC hydroxylase [3]): 27%

CC1=C(C(=O)O)N2C(=O)[C@@H](NC(=O)CCC[C@@H](N)C(=O)O)[C@H]2CC1 [Carba-DAOC, 1carba(1-dethia)deacetoxycephalosporin C]
Sp. Activity (mU/mg) (DAOC hydroxylase [2]): 3.0 mU/mg
Relative Activity (%) (DAOC hydroxylase [2]): 1.9%
effectiveness as substrate (DAOC hydroxylase [2]): did not serve as effective substrates

O=S(=O)(O)CCN1CCN(CCO)CC1 [HEPES buffer]
reduction in enzyme activity (DAOC hydroxylase [3]): 7%

Nc1ncnc2c1ncn2[C@@H]1O[C@H](COP(=O)(O)OP(=O)(O)OP(=O)(O)O)[C@@H](O)[C@H]1O [ATP]
stimulation of catalytic activity (DAOC hydroxylase [3]): not

[Na+] [sodium]
replacement of ferrous ion for enzymatic activity (DAOC hydroxylase [3]): not replaceable

CCO [ethyl alcohol]
effect on the stability of the hydroxylase [4]: no effect

O=S(=O)(F)Cc1ccccc1 [phenylmethylsulfonyl fluoride]
effect on the stability of the hydroxylase ([4]; added during preparation of the extracts): no effect

O=C(O)CN(CCN(CC(=O)O)CC(=O)O)CC(=O)O [EDTA, ethylenediamine tetraacetic acid]
Relative Activity (%) (DAOC hydroxylase [3]; additive 0.05 mM): 16%
Relative Activity (%) (DAOC hydroxylase [3]; additive 0.5 mM): 0%

[Co+2] [Co^2+]
replacement of ferrous ion for enzymatic activity (DAOC hydroxylase [3]): not replaceable

[Fe+2] [ferrous ion]
enzymatic activity without external Fe2+ (DAOC hydroxylase [3]; no external Fe2+): 2 % of maximum
Ka of the hydroxylase (DAOC hydroxylase [5]; activator ferrous ion): 20 µM

[Mn+2] [Mn^2+]
replacement of ferrous ion for enzymatic activity (DAOC hydroxylase [3]): not replaceable

CC1=C(C(=O)O)N2C(=O)[C@@H](NC(=O)CCC[C@H](N)C(=O)O)[C@H]2SC1 [Iso-DAOC, 7β-(Lα-aminoadipamido)-3-methyl-3-cephem-4-carboxylic acid]
Sp. Activity (mU/mg) (DAOC hydroxylase [2]): 1.3 mU/mg
Relative Activity (%) (DAOC hydroxylase [2]): 0.8%
effectiveness as substrate (DAOC hydroxylase [2]): did not serve as effective substrates

O=C(O)CI [Iodoacetic acid]
Relative Activity (%) (DAOC hydroxylase [3]; additive 1 mM): 59%

O=C(O)c1cc(SSc2ccc([N+](=O)[O-])c(C(=O)O)c2)ccc1[N+](=O)[O-] [DTNB, 5,5'-dithiobis2-nitrobenzoic acid]
Relative Activity (%) (DAOC hydroxylase [3]; additive 1 mM): 0%

[Mg+2] [Mg^2+]
replacement of ferrous ion for enzymatic activity (DAOC hydroxylase [3]): not replaceable

O=C1O[C@H]([C@@H](O)CO)C(O)=C1O [ascorbate]
drop of maximum catalytic activity when not present (DAOC hydroxylase [3]): ~80%

OCCS [β-Mercaptoethanol]
stimulation of catalytic activity (DAOC hydroxylase [3]): little stimulating effect

[Fe+3] [ferric ion]
replacement of ferrous ion for enzymatic activity (DAOC hydroxylase [3]): can replace ferrous ion with retention of maximum activity

c1cnc2c(c1)ccc1cccnc12 [o-Phenanthroline]
Relative Activity (%) (DAOC hydroxylase [3]; additive 0.05 mM): 81%
Relative Activity (%) (DAOC hydroxylase [3]; additive 0.5 mM): 0%

[K+] [potassium]
replacement of ferrous ion for enzymatic activity (DAOC hydroxylase [3]): not replaceable

[Zn+2] [Zn^2+]
replacement of ferrous ion for enzymatic activity (DAOC hydroxylase [3]): not replaceable

[Ni+2] [Ni^2+]
replacement of ferrous ion for enzymatic activity (DAOC hydroxylase [3]): not replaceable

N[C@@H](CCC(=O)N[C@@H](CS)C(=O)NCC(=O)O)C(=O)O [Reduced glutathione]
stimulation of catalytic activity (DAOC hydroxylase [3]): as effective

CCN1C(=O)C=CC1=O [NEM, Nethylmaleimide]
Relative Activity (%) (DAOC hydroxylase [3]; additive 1 mM): 24%

[Cu+2] [Cu^2+]
replacement of ferrous ion for enzymatic activity (DAOC hydroxylase [3]): not replaceable

[Ca+2] [Ca^2+]
replacement of ferrous ion for enzymatic activity (DAOC hydroxylase [3]): not replaceable

B1: DAOC hydroxylase: enzyme from Streptomyces clavuligerus converting DAOC to DAC; monomeric, about 35,000 dalton (protein, UniProt P42220 2-318, looked up)
Deacetoxycephalosporin C …: ADTPVPIFNLAALREGADQEKFRECVTGMGVFYLTGYGAGDKDHRLATDTAMDFFANGTEAEKAAVTTDVPTMRRGYSALEAESTAQVTRTGSYTDYSMSFSMGISGNVFPSPEFERVWTEYFDKLYAAAQETARLVLTASGGYDAEIVGSLDELLDADPVLRLRYFPEVPEHRSAEHEPRRMAPHYDLSIITFIHQTPCANGFVSLQAEIGGELVSLPVVEDAVVVMCGAMAPLATQGALPAPRHHVRSPGAGMREGSDRTSSVFFLRPTTDFSFSVAKARSYGLAVDLDMETATFGDWIGTNYVTMHAKNEPQAG
Vmax of the hydroxylase (DAOC hydroxylase [5]; DAOC to DAC, optimal reaction conditions): 0.45 μM of DAC formed per minute per milligram of protein
half-life ([4]; crude extract in stabilizing buffer A (15 mM MOPS pH 7.3, 1 mM uric acid, 1 mM mannitol, 0.1M KCl)): 72 h
half-life ([4]; crude extract, 4° C., 15 mM Tris-HCl buffer, pH 7.5): 12 h
improvement of half-life over Tris-HCl buffer ([4]; stabilizing buffer A): 6 fold

B2: DAOC hydroxylase (Streptomyces clavuligerus) (protein)
chain: MADTPVPIFNLAALREGADQEKFRECVTGMGVFYLTGYGAGDKDHRLATDTAMDFFANGTEAEKAAVTTDVPTMRRGYSALEAESTAQVTRTGSYTDYSMSFSMGISGNVFPSPEFERVWTEYFDKLYAAAQETARLVLTASGGYDAEIVGSLDELLDADPVLRLRYFPEVPEHRSAEHEPRRMAPHYDLSIITFIHQTPCANGFVSLQAEIGGELVSLPVVEDAVVVMCGAMAPLATQGALPAPRHHVRSPGAGMREGSDRTSSVFFLRPTTDFSFSVAKARSYGLAVDLDMETATFGDWIGTNYVTMHAKNEPQAG
Km [6]: 10 µM
Km [7]: 50 µM
